Where “and” joins values, the source holds several entries; their conditions need not be identical. Identical values can stand only once.
Test system: 624824-186-R-J3-PDC multicell spheroids, viability
Experiment: Anticancer human tumor 624824-186-R-J3-PDC patient-derived colon adenocarcinoma cell line growth inhibition [PI3K]
Settings: for viability, T/C: stronger effect = lower value
How it was run: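 High-throughput combination screen: PI3K inhibitors crossed with targeted small molecules on complex spheroids of tumor cells, HUVEC and MSCs at 37 degrees C, 5% CO2. Top concentration was at or near clinical Cmax (otherwise 10 microM), with half-log decrements.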

[1] = curve of first compound, second compound 0.00316 µM
[2] = curve of first compound, second compound 0.01 µM
[3] = curve of first compound, second compound 0.0316 µM
[4] = curve of first compound, second compound 0.1 µM
[5] = curve of first compound, second compound 0.316 µM
[6] = curve of first compound, second compound 1 µM
[7] = second compound 0.00316 µM, first compound 0.0316 µM
[8] = second compound 0.00316 µM, first compound 0.1 µM
[9] = second compound 0.00316 µM, first compound 0.316 µM
[10] = second compound 0.00316 µM, first compound 1 µM
[11] = second compound 0.00316 µM, first compound 3.16 µM
[12] = second compound 0.00316 µM, first compound 10 µM
[13] = second compound 0.01 µM, first compound 0.0316 µM
[14] = second compound 0.01 µM, first compound 0.1 µM
[15] = second compound 0.01 µM, first compound 0.316 µM
[16] = second compound 0.01 µM, first compound 1 µM
[17] = second compound 0.01 µM, first compound 3.16 µM
[18] = second compound 0.01 µM, first compound 10 µM
[19] = second compound 0.0316 µM, first compound 0.0316 µM
[20] = second compound 0.0316 µM, first compound 0.1 µM
[21] = second compound 0.0316 µM, first compound 0.316 µM
[22] = second compound 0.0316 µM, first compound 1 µM
[23] = second compound 0.0316 µM, first compound 3.16 µM
[24] = second compound 0.0316 µM, first compound 10 µM
[25] = second compound 0.1 µM, first compound 0.0316 µM
[26] = second compound 0.1 µM, first compound 0.1 µM
[27] = second compound 0.1 µM, first compound 0.316 µM
[28] = second compound 0.1 µM, first compound 1 µM
[29] = second compound 0.1 µM, first compound 3.16 µM
[30] = second compound 0.1 µM, first compound 10 µM
[31] = second compound 0.316 µM, first compound 0.0316 µM
[32] = second compound 0.316 µM, first compound 0.1 µM
[33] = second compound 0.316 µM, first compound 0.316 µM
[34] = second compound 0.316 µM, first compound 1 µM
[35] = second compound 0.316 µM, first compound 3.16 µM
[36] = second compound 0.316 µM, first compound 10 µM
[37] = second compound 1 µM, first compound 0.0316 µM
[38] = second compound 1 µM, first compound 0.1 µM
[39] = second compound 1 µM, first compound 0.316 µM
[40] = second compound 1 µM, first compound 1 µM
[41] = second compound 1 µM, first compound 3.16 µM
[42] = second compound 1 µM, first compound 10 µM
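Also: spheroids exposed to agents for seven days before luminescence read.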
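For viability, T/C in this document: luminescent signal used as a stand-in for spheroid viability; percent viability relative to DMSO vehicle control wells taken as 100%.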

CC(C)NCC(C(=O)N1CCN(c2ncnc3c2C(C)CC3O)CC1)c1ccc(Cl)cc1 (stereo not drawn) + CC(Nc1ccc2c(c1)OCCn1cc(N3C(=O)OCC3C(F)F)nc1-2)C(N)=O
IC50 [1]: 6.8 µM | IC50 [2]: 7.52 µM | IC50 [3]: 5.35 µM | IC50 [4]: 7.68 µM | IC50 [5]: 4.24 µM | IC50 [6]: 3.44 µM | viability, T/C [7]: 107% | viability, T/C [8]: 96.8% | viability, T/C [9]: 97.7% | viability, T/C [10]: 73.1% | viability, T/C [11]: 59.9% | viability, T/C [12]: 45.4% | viability, T/C [13]: 98.3% | viability, T/C [14]: 96.8% | viability, T/C [15]: 99.4% | viability, T/C [16]: 72% | viability, T/C [17]: 63.8% | viability, T/C [18]: 45.3% | viability, T/C [19]: 96.2% | viability, T/C [20]: 93.4% | viability, T/C [21]: 91.6% | viability, T/C [22]: 77.4% | viability, T/C [23]: 57.2% | viability, T/C [24]: 41.7% | viability, T/C [25]: 108% | viability, T/C [26]: 94.1% | viability, T/C [27]: 88.1% | viability, T/C [28]: 83.7% | viability, T/C [29]: 59.5% | viability, T/C [30]: 46.4% | viability, T/C [31]: 96.2% | viability, T/C [32]: 91.8% | viability, T/C [33]: 94.4% | viability, T/C [34]: 72.5% | viability, T/C [35]: 54.2% | viability, T/C [36]: 41.9% | viability, T/C [37]: 92% | viability, T/C [38]: 88.8% | viability, T/C [39]: 86.1% | viability, T/C [40]: 65% | viability, T/C [41]: 53.6% | viability, T/C [42]: 35.1%

CC(=O)c1c(C)c2cnc(Nc3ccc(N4CCNCC4)cn3)nc2n(C2CCCC2)c1=O + CC(Nc1ncnc2nc[nH]c12)c1cc2cccc(Cl)c2c(=O)n1-c1ccccc1
IC50 [3]: > 0.1 µM | IC50 [4]: > 0.1 µM | IC50 [5]: > 0.1 µM | IC50 [6]: > 0.1 µM | IC50 (curve of first compound, second compound 3.16 µM): > 0.1 µM | IC50 (curve of first compound, second compound 10 µM): > 0.1 µM | viability, T/C (second compound 0.0316 µM, first compound 0.000316 µM): 107% | viability, T/C (second compound 0.0316 µM, first compound 0.001 µM): 96.8% | viability, T/C (second compound 0.0316 µM, first compound 0.00316 µM): 103% | viability, T/C (second compound 0.0316 µM, first compound 0.01 µM): 113% | viability, T/C [19]: 99.7% | viability, T/C [20]: 122% | viability, T/C (second compound 0.1 µM, first compound 0.000316 µM): 93% | viability, T/C (second compound 0.1 µM, first compound 0.001 µM): 91.9% | viability, T/C (second compound 0.1 µM, first compound 0.00316 µM): 106% | viability, T/C (second compound 0.1 µM, first compound 0.01 µM): 101% | viability, T/C [25]: 105% | viability, T/C [26]: 111% | viability, T/C (second compound 0.316 µM, first compound 0.000316 µM): 94.9% | viability, T/C (second compound 0.316 µM, first compound 0.001 µM): 102% | viability, T/C (second compound 0.316 µM, first compound 0.00316 µM): 99.9% | viability, T/C (second compound 0.316 µM, first compound 0.01 µM): 103% | viability, T/C [31]: 107% | viability, T/C [32]: 119% | viability, T/C (second compound 1 µM, first compound 0.000316 µM): 94.4% | viability, T/C (second compound 1 µM, first compound 0.001 µM): 103% | viability, T/C (second compound 1 µM, first compound 0.00316 µM): 102% | viability, T/C (second compound 1 µM, first compound 0.01 µM): 104% | viability, T/C [37]: 116% | viability, T/C [38]: 109% | viability, T/C (second compound 3.16 µM, first compound 0.000316 µM): 94.6% | viability, T/C (second compound 3.16 µM, first compound 0.001 µM): 116% | viability, T/C (second compound 3.16 µM, first compound 0.00316 µM): 113% | viability, T/C (second compound 3.16 µM, first compound 0.01 µM): 103% | viability, T/C (second compound 3.16 µM, first compound 0.0316 µM): 99.2% | viability, T/C (second compound 3.16 µM, first compound 0.1 µM): 110% | viability, T/C (second compound 10 µM, first compound 0.000316 µM): 97.7% | viability, T/C (second compound 10 µM, first compound 0.001 µM): 99.8% | viability, T/C (second compound 10 µM, first compound 0.00316 µM): 94.7% | viability, T/C (second compound 10 µM, first compound 0.01 µM): 89.5% | viability, T/C (second compound 10 µM, first compound 0.0316 µM): 90.3% | viability, T/C (second compound 10 µM, first compound 0.1 µM): 83%

CC(C)n1nc(-c2ccc3oc(N)nc3c2)c2c(N)ncnc21
viability, T/C (compound 0.000316 µM): 103% [middle of 4 runs] | viability, T/C (compound 0.001 µM): 104% and 97.2% and 101% (2×) | viability, T/C (compound 0.00316 µM): 106% [middle of 4 runs] | viability, T/C (compound 0.01 µM): 108% [middle of 4 runs] | viability, T/C (compound 0.0316 µM): 99.4% [middle of 4 runs] | viability, T/C (compound 0.1 µM): 64.2% [middle of 4 runs] | IC50 (curve of compound): > 0.1 µM

CC(C)NCC(C(=O)N1CCN(c2ncnc3c2C(C)CC3O)CC1)c1ccc(Cl)cc1 (stereo not drawn) + COc1c(OCCCN2CCOCC2)ccc2c3n(c(=NC(=O)c4cnc(N)nc4)nc12)CCN3
IC50 [1]: > 10 µM | IC50 [2]: > 10 µM | IC50 [3]: 7.59 µM | IC50 [4]: 4.86 µM | IC50 [5]: 0.0351 µM | IC50 [6]: < 0.0316 µM | viability, T/C [7]: 101% | viability, T/C [8]: 103% | viability, T/C [9]: 106% | viability, T/C [10]: 76.1% | viability, T/C [11]: 68.3% | viability, T/C [12]: 56.4% | viability, T/C [13]: 109% | viability, T/C [14]: 97.1% | viability, T/C [15]: 101% | viability, T/C [16]: 82.2% | viability, T/C [17]: 64.5% | viability, T/C [18]: 52.7% | viability, T/C [19]: 104% | viability, T/C [20]: 110% | viability, T/C [21]: 85.6% | viability, T/C [22]: 84.8% | viability, T/C [23]: 60% | viability, T/C [24]: 46.7% | viability, T/C [25]: 73.2% | viability, T/C [26]: 75% | viability, T/C [27]: 66.2% | viability, T/C [28]: 60.8% | viability, T/C [29]: 57.4% | viability, T/C [30]: 41.4% | viability, T/C [31]: 47.9% | viability, T/C [32]: 49% | viability, T/C [33]: 46.5% | viability, T/C [34]: 38.5% | viability, T/C [35]: 37.5% | viability, T/C [36]: 33.7% | viability, T/C [37]: 29.4% | viability, T/C [38]: 28.5% | viability, T/C [39]: 28.7% | viability, T/C [40]: 27.1% | viability, T/C [41]: 26.9% | viability, T/C [42]: 27.8%
